Assay results: PMC5510229, “BCAT1 controls metabolic reprogramming in activated human macrophages and is associated with inflammatory diseases” (Nature Communications, 2017)

Legend:
[1] = test system: human monocyte-derived macrophages (hMDMs); test: qRT-PCR / Western blot of activation markers in hMDMs; assay type: cell-based; details: 3 h
Procedure: Figure 1 BCAT1 expression and inhibition in human macrophages. […] (b) Chemical structure of ERG240 and leucine. (c) Enzymatic activity of recombinant human BCAT1 and BCAT2 in presence of ERG240. (d) Relative expression of IRG1, HIF1A and IL1B measured by qRT-PCR in control, ERG240-treated (20 mM, 3 h), LPS treated (100 ng ml^−1, 3 h), and LPS+ERG240 treated (LPS, 100 ng ml^−1; ERG240, 20 mM for 3 h) hMDMs. ns, non-significant. All expression values are normalized to those obtained for HPRT gene expression. n=3 healthy donor hMDMs were used in each group. (e) Western blot analysis of IRG1, IL-1β, HIF-1α and beta-actin (ACTB) in control (untreated), ERG240-treated (20 mM, 3 h), LPS treated (100 ng ml^−1, 3 h) and LPS+ERG240 treated (LPS, 100 ng ml^−1; ERG240, 20 mM for 3 h) hMDMs. […]
hMDMs were lysed in Laemmli sample buffer supplemented with protease inhibitors and resolved by SDS-PAGE, transferred into PVDF membranes, and subjected to immunoblotting with the primary antibodies described above and secondary detection antibodies. The probed proteins were detected using SuperSignal West Femto Chemiluminescent Substrate (Thermo Fisher Scientific Inc., Rockford, IL). […] Results were analysed using the comparative Ct method and each sample was normalized to the indicated reference gene, to account for any cDNA loading differences. […]

[2] = test system: nephrotoxic nephritis (NTN) model; test: Nephrotoxic nephritis (NTN, crescentic glomerulonephritis) in the WKY rat; assay type: in vivo, Wistar-Kyoto (WKY) rat
Text: Figure 5 Orally administrated ERG240 reduced the severity of crescentic glomerulonephritis in rats and CIA in mice. (a) Glomerular crescents, serum creatinine, and proteinuria levels measured in vehicle and ERG240 treated rats at day 10 following induction of nephrotoxic nephritis. At least n=4 rats were used in each group. (b) Col1a1 immunofluorescence (IF) quantification (left panel), representative IF and Sirius red staining images (middle panel) and Col1a1 qRT-PCR (normalized to Hprt) 28 days following NTS injection. Original magnification, × 20, at least n=4 animals were used in each group. (c) Clinical progression of CIA measured by the Mean Arthritis Index in vehicle and ERG240-treated animals in both studies (prophylactic and therapeutic, upper panel; at least n=6 animals per group). Histological analysis of joints from representative whole paws scored for inflammation, pannus formation, cartilage damage and bone resorption (lower panel). Error bars are s.e.m. Either Mann–Whitney or Student’s t-test were used for significance. *** P<0.001, ** P<0.01, * P<0.05. Scale bars, 50 μm.
Nephrotoxic nephritis (NTN) was induced in twelve week old male Wistar-Kyoto (WKY) rats by intravenous injection of 0.1 ml of nephrotoxic serum (NTS), as previously described. Five WKY rats received ERG240 (250 mg kg^−1) orally in 0.1% carboxymethylcellulose once a day for a duration of 10 days whereas the vehicle treated WKY rats had carboxymethylcellulose only for the same period. Nine days following NTS injection, urine was collected by placing rats in metabolic cages for 24 h with free access to food and water. Proteinuria was determined by the sulphosalicylic acid test and serum creatinine by the Creatinine Assay Kit (Abcam). After 10 or 28 days of NTN induction, rats were culled and the kidney was formalin fixed and paraffin embedded for immunohistochemistry. To quantify the number of macrophages infiltrating the glomeruli, formalin-fixed paraffin-embedded kidney sections were stained with mouse monoclonal antibody to ED-1 (Serotec, Oxford, UK), followed by an HRP-labelled anti-mouse polymer development system (Dako Ltd, UK). For the evaluation of total collagen, renal tissues were stained with Sirius red. For Col1a1 immunofluorescence, sections were blocked with BSA, incubated with the Col1a1 primary antibody raised in goat (Southern Biotech, 1/40 dilution), washed and re-incubated with secondary antibody (donkey anti-goat-FITC, 1/100 dilution, Abcam). For ED-1 staining, the cellular infiltrates in 20 consecutive glomeruli were quantified using an automated image analysis software (ImagePro Plus, Media Cybernetics, Bethesda, MD) and expressed as a percentage of total glomerular cross sectional area.

[3] = 250 mg kg^−1 orally once a day, 10 days, day 10

CC(=O)C(C)CCC(=O)O (stereo not shown) [ERG240]
IRG1 protein levels (Western blot) ([1]; LPS 100 ng ml^−1 + ERG240 20 mM): reduction in IRG1 levels | IRG1 mRNA levels ([1]; LPS-stimulated hMDMs (100 ng ml^−1), ERG240 20 mM): dramatic reduction | glomerular crescent formation [2, 3]: significantly reduced | proteinuria [2, 3]: significantly reduced | serum creatinine [2, 3]: significantly reduced | interstitial fibrosis ([2]; NTN model): reduced interstitial fibrosis | Col1a1 mRNA levels in the renal cortex ([2]; day 28): reduced | Sirius red staining ([2]; day 28): reduced Sirius red staining | collagen type I alpha I quantitative immunofluorescence in nephritic kidneys ([2]; day 28): significant down-regulation | glomerular infiltration of CD68 (ED1)-positive cells ([2]; rat, in vivo): significantly decreased
